In US20260355196A1, “INHIBITORS AND DEGRADERS OF PIP4K PROTEIN” (Larkspur Biosciences, Inc., priority 2023, published 2026) one finds DC50 data, which are given here for 14 compounds.

This test deals with T1, PIP4K2C (Homo sapiens, UniProt Q8TBX8).
T1 sequence (Q8TBX8 1-421): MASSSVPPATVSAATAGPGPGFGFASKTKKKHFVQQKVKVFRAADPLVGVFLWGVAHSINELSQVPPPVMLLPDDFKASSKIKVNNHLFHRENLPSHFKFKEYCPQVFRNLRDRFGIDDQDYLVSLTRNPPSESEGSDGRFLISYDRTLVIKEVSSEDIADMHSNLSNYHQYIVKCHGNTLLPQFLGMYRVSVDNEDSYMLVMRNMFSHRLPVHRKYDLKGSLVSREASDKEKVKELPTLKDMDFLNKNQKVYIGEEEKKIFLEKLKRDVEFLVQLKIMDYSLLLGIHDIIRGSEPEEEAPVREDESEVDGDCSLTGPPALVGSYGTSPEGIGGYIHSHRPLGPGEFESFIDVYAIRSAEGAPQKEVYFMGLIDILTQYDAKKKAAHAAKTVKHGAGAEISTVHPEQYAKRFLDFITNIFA
The test is described as follows: HiBiT PIP4K2C degradation assay in MOLT-4 cells (endogenous PIP4K2C C-terminally tagged with HiBiT). The note with it: 24 hours incubation, MOLT-4, top concentration 10 micromolar; read-out: HiBIT-degradation MOLT4 PIP4k2C 24 hours DC50. Also on record: untagged in primary human PBMCs and monocyte-derived dendritic cells. Format: cell-based. A digest of the protocol:
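Cells are plated onto compound dilutions (10 points, 3-fold, top 10 micromolar) and incubated 24 or 6 hours at 37 C. Lytic HiBiT detection then quantifies tagged endogenous PIP4K2C in MOLT-4, and a Hill fit yields DC50.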
Usually DC50 stands for the midpoint of the concentration-degradation curve. As to `O=C1CCC(Nc2ccc(C3CCN(CCC4CCN(C(=O)[C@H]5CCC[C@@H](Nc6ncc(F)c(-c7cccc(-n8ccccc8=O)c7)n6)C5)CC4)CC3)c(F)c2)C(=O)N1` (stereo partly drawn) [Compound 309, 3-((3-fluoro-4-(1-(2-(1-((1S,3R)-3-((5-fluoro-4-(3-(2-oxopyridin-1(2H)-yl)phenyl)pyrimidin-2-yl)amino)cyclohexane-1-carbonyl)piperidin-4-yl)ethyl)piperidin-4-yl)phenyl)amino)piperidine-2,6-dione], the 50% degradation concentration (DC50) was more than 5000 nM.

As for `O=C1CCC(Nc2ccc(C3CCN(CCC4CCN(C(=O)[C@@H]5CCC[C@H](Nc6ncc(F)c(-c7cccc(-n8ccccc8=O)c7)n6)C5)CC4)CC3(F)F)c(F)c2)C(=O)N1` (stereo partly drawn) [Compound 310, 3-[4-[3,3-difluoro-1-[2-[1-[(1R,3S)-3-[[5-fluoro-4-[3-(2-oxo-1-pyridyl)phenyl]pyrimidin-2-yl]amino]cyclohexanecarbonyl]-4-piperidyl]ethyl]-4-piperidyl]-3-fluoro-anilino]piperidine-2,6-dione], the DC50 is less than 500 nM.

On to `O=C1CCC(Nc2ccc(C3CCN(CCC4CCN(C(=O)[C@H]5CCC[C@@H](Nc6ncc(F)c(-c7cccc(-n8ccccc8=O)c7)n6)C5)CC4)CC3(F)F)c(F)c2)C(=O)N1` (stereo partly drawn) [Compound 311, 3-((4-(3,3-difluoro-1-(2-(1-((1S,3R)-3-((5-fluoro-4-(3-(2-oxopyridin-1(2H)-yl)phenyl)pyrimidin-2-yl)amino)cyclohexane-1-carbonyl)piperidin-4-yl)ethyl)piperidin-4-yl)-3-fluorophenyl)amino)piperidine-2,6-dione], for which the DC50 was less than 500 nM.

With `Cn1c(=O)n(C2CCC(=O)NC2=O)c2ccc(C3CCN(CC4CCN(CC(=O)N5CCC(Nc6ncc(F)c(-c7cccc(-n8ccccc8=O)c7)n6)CC5)CC4)CC3)cc21` (centres unmarked) [Compound 312, 3-(5-(1-((1-(2-(4-((5-fluoro-4-(3-(2-oxopyridin-1(2H)-yl)phenyl)pyrimidin-2-yl)amino)piperidin-1-yl)-2-oxoethyl)piperidin-4-yl)methyl)piperidin-4-yl)-3-methyl-2-oxo-2,3-dihydro-1H-benzo[d]imidazol-1-yl)piperidine-2,6-dione], the 50% degradation concentration (DC50) was less than 500 nM. In the case of `O=C1CCC(Nc2ccc(C3CCN(CC4CCN(CC(=O)N[C@H]5CC[C@H](Nc6ncc(F)c(-c7cccc(-n8ccccc8=O)c7)n6)CC5)CC4)CC3)c(F)c2)C(=O)N1` (stereo partly drawn) [Compound 313, trans-2-(4-((4-(4-((2,6-dioxopiperidin-3-yl)amino)-2-fluorophenyl)piperidin-1-yl)methyl)piperidin-1-yl)-N-(4-((5-fluoro-4-(3-(2-oxopyridin-1(2H)-yl)phenyl)pyrimidin-2-yl)amino)cyclohexyl)acetamide] it was less than 500 nM. In the case of `O=C1CCC(Nc2ccc(C3CCN(CC4CCN(CC(=O)N5CCC(Nc6ncc(F)c(-c7cccc(-n8ccccc8=O)c7)n6)CC5)CC4)CC3)c(F)c2)C(=O)N1` (centres unmarked) [Compound 314, 3-((3-fluoro-4-(1-((1-(2-(4-((5-fluoro-4-(3-(2-oxopyridin-1(2H)-yl)phenyl)pyrimidin-2-yl)amino)piperidin-1-yl)-2-oxoethyl)piperidin-4-yl)methyl)piperidin-4-yl)phenyl)amino)piperidine-2,6-dione] it was less than 500 nM; in that of `Cn1nc(C2CCC(=O)NC2=O)c2ccc(C3CCN(CC4CCN(CC(=O)N5CCC(Nc6ncc(F)c(-c7cccc(-n8ccccc8=O)c7)n6)CC5)CC4)CC3)cc21` (centres unmarked) [Compound 315, 3-(6-(1-((1-(2-(4-((5-fluoro-4-(3-(2-oxopyridin-1(2H)-yl)phenyl)pyrimidin-2-yl)amino)piperidin-1-yl)-2-oxoethyl)piperidin-4-yl)methyl)piperidin-4-yl)-1-methyl-1H-indazol-3-yl)piperidine-2,6-dione], less than 500 nM. As for `O=C1CCC(Nc2ccc(N3CCC(CCN4CCC(C(=O)N[C@H]5CC[C@H](Nc6ncc(F)c(-c7cccc(-n8ccccc8=O)c7)n6)CC5)CC4)CC3)c(F)c2)C(=O)N1` (stereo partly drawn) [Compound 316, trans-1-[2-[1-[4-[(2,6-dioxo-3-piperidyl)amino]-2-fluoro-phenyl]-4-piperidyl]ethyl]-N-[4-[[5-fluoro-4-[3-(2-oxo-1-pyridyl)phenyl]pyrimidin-2-yl]amino]cyclohexyl]piperidine-4-carboxamide], the figure is less than 500 nM. In the case of `O=C1CCC(n2c(=O)oc3cc(N4CCC(N5CCC(C(=O)N[C@H]6CC[C@H](Nc7ncc(F)c(-c8cccc(-n9ccccc9=O)c8)n7)CC6)CC5)CC4)ccc32)C(=O)N1` (stereo partly drawn) [Compound 317, trans-1′-(3-(2,6-dioxopiperidin-3-yl)-2-oxo-2,3-dihydrobenzo[d]oxazol-6-yl)-N-(4-((5-fluoro-4-(3-(2-oxopyridin-1(2H)-yl)phenyl)pyrimidin-2-yl)amino)cyclohexyl)-[1,4′-bipiperidine]-4-carboxamide], the DC50 is less than 500 nM. In the case of `O=C1CCC(Nc2ccc(C3CCN(CC4CCN(C(=O)[C@H]5CC[C@H](Nc6ncc(F)c(-c7cccc(-n8ccccc8=O)c7)n6)CC5)CC4)CC3)c(F)c2)C(=O)N1` (stereo partly drawn) [Compound 318, trans-3-((3-fluoro-4-(1-((1-(4-((5-fluoro-4-(3-(2-oxopyridin-1(2H)-yl)phenyl)pyrimidin-2-yl)amino)cyclohexane-1-carbonyl)piperidin-4-yl)methyl)piperidin-4-yl)phenyl)amino)piperidine-2,6-dione] it was less than 500 nM; in that of `O=C1CCC(Nc2ccc(N3CCN([C@H]4CC[C@H](C(=O)N[C@H]5CC[C@H](Nc6ncc(F)c(-c7cccc(-n8ccccc8=O)c7)n6)CC5)CC4)CC3)c(F)c2)C(=O)N1` (stereo partly drawn) [Compound 319, trans-trans-4-(4-(4-((2,6-dioxopiperidin-3-yl)amino)-2-fluorophenyl)piperazin-1-yl)-N-(4-((5-fluoro-4-(3-(2-oxopyridin-1(2H)-yl)phenyl)pyrimidin-2-yl)amino)cyclohexyl)cyclohexane-1-carboxamide], less than 500 nM.

For `O=C1CCC(n2c(=O)oc3cc(C4CCN(CCC5CCN(C(=O)[C@H]6CC[C@H](Nc7ncc(F)c(-c8cccc(-n9ccccc9=O)c8)n7)CC6)CC5)CC4)ccc32)C(=O)N1` (stereo partly drawn) [Compound 321, trans-3-(6-(1-(2-(1-(4-((5-fluoro-4-(3-(2-oxopyridin-1(2H)-yl)phenyl)pyrimidin-2-yl)amino)cyclohexane-1-carbonyl)piperidin-4-yl)ethyl)piperidin-4-yl)-2-oxobenzo[d]oxazol-3 (2H)-yl)piperidine-2,6-dione], the DC50 is less than 500 nM. In the case of `O=C1CCC(Nc2ccc(C3CCN(CCC4CCN(C(=O)[C@H]5CC[C@H](Nc6ncc(F)c(-c7cccc(-n8ccccc8=O)c7)n6)CC5)CC4)CC3)c(F)c2)C(=O)N1` (stereo partly drawn) [Compound 322, trans-3-((3-fluoro-4-(1-(2-(1-((1r,4r)-4-((5-fluoro-4-(3-(2-oxopyridin-1(2H)-yl)phenyl)pyrimidin-2-yl)amino)cyclohexane-1-carbonyl)piperidin-4-yl)ethyl)piperidin-4-yl)phenyl)amino)piperidine-2,6-dione] it was less than 500 nM; in that of `O=C1CCC(n2c(=O)oc3cc(C4CCN(CC5CCN(C(=O)[C@H]6CC[C@H](Nc7ncc(F)c(-c8cccc(-n9ccccc9=O)c8)n7)CC6)CC5)CC4)ccc32)C(=O)N1` (stereo partly drawn) [Compound 323, trans-3-(6-(1-((1-(4-((5-fluoro-4-(3-(2-oxopyridin-1(2H)-yl)phenyl)pyrimidin-2-yl)amino)cyclohexane-1-carbonyl)piperidin-4-yl)methyl)piperidin-4-yl)-2-oxobenzo[d]oxazol-3 (2H)-yl)piperidine-2,6-dione], less than 500 nM.
